Data taken from patent US20140343145A1, “RBP1 as a Molecular Biomarker for Predicting Survival and Response to Treatment in Glioma” (The Regents of the University of California, priority 2011, published 2014).
Entries after “also recorded” stand apart in the source; their conditions may differ.

What was measured:
[1] = tested on: primary glioblastoma multiforme patients; assay: Kaplan-Meier analysis of overall survival in the GBM Survival Cohort (124 primary glioblastoma patients) by RBP1 methylation and isotretinoin treatment; assay type: in vivo, human
From the text: FIGS. 10A-10B show the Kaplan-Meier analysis of overall survival (OS) in a cohort of 124 primary glioblastoma mulitforme patients with respect to RBP1 methylation and isotretinoin (ITR) treatment. FIG. 10A provides RBP1-unmethylated patients treated (solid, n=19) vs untreated with isotretinoin (dotted, n=83). FIG. 10B provides RBP1-methylated patients treated (solid, n=7) and untreated with isotretinoin (dotted, n=15). RBP1=retinol binding protein 1; WT=wild-type; MUT=mutant; ITR=isotretinoin.
Within the 198-patient Total Cohort, 124 samples that were obtained from treatment-naïve primary GBM patients with detailed clinical information were retrospectively identified. Patients were treated with a combination of radiation (RT) and temozolomide (TMZ) after surgical resection (Stupp R, et al. N Engl J Med 2005; 352(10):987-96). Overall survival (OS) was defined as the date of diagnosis to date of death from any cause. For patients lost to follow-up without obtainable date of death, censoring date was last clinic visit or contact. If the last clinic or contact was after the Sep. 9, 2011 freeze date, the patient was censored at […]. […]
Correlation between IDH1 mutation and RBP1 methylation was determined using the Spearman correlation test. […]

[2] = tested on: patients with primary glioblastoma; assay: Kaplan-Meier analysis of overall survival in a preliminary cohort of 414 primary glioblastoma patients, with or without upfront isotretinoin; assay type: in vivo, human
Protocol: Survival for an unpublished preliminary cohort of 414 patients with primary glioblastoma were analyzed with Kaplan-Meier analysis. Survival curves for patients with wild-type or IDH1/2 mutant genotypes with or without upfront treatment with isotretinoin, in combination with standard-of-care debulking surgery, temozolomide, and radiation therapy, are shown. […] WT=wild-type, MUT=IDH1 MUT, ITR=isotretinoin (13-cis retinoic acid).
Specifically, the median overall survival for IDH1 mutant glioblastoma patients treated with isotretinoin was 81 months as compared with 36 months for similar IDH1 mutant glioblastoma patients who were not treated with isotretinoin. […] Therefore, in some embodiments, the present invention is directed to methods of treating IDH1/IDH2 mutant gliomas in subjects, which comprise administering to the subjects having been diagnosed with an IDH1 and/or an IDH2 mutation and/or RBP1 promoter hypermethylation one or more retinoids.

[3] = tested on: unselected glioma patients; conditions: patients not selected for any biomarker/mutation (Yung 1996); cited from earlier work

## CC1=C(/C=C/C(C)=C/C=C/C(C)=C\C(=O)O)C(C)(C)CCC1 [isotretinoin, 13-cis retinoic acid]
[1]; RBP1-methylated primary GBM patients who received isotretinoin (n=7), untreated 36.7 months, P=0.53
  median OS (overall survival): 82.5 months
[1]; RBP1-unmethylated primary GBM patients who received adjuvant isotretinoin with temozolomide (n=19), untreated 19.8 months, P=0.25
  median OS (overall survival): 22.0 months
[2]; IDH1 mutant glioblastoma patients treated with isotretinoin, 36 months for similar patients not treated
  median overall survival: 81 months
[2]; upfront isotretinoin with standard-of-care debulking surgery, temozolomide and radiation, patients with IDH1 or IDH2 mutant glioblastoma
  effect on overall survival, IDH1/IDH2 mutant glioblastoma: significantly improve the overall survival; also recorded: significantly increased overall survival
[2]; upfront isotretinoin with standard-of-care debulking surgery, temozolomide and radiation, patients with wild-type tumors (WT)
  effect on overall survival, wild-type tumors: only modest increase in overall survival
[3]
  efficacy in unselected glioma patients: little to only modest efficacy
